The Kd is the concentration at which binding is half-saturated. What is called ΔTm is the change in melting temperature against a reference sample.

Each structure is given as a SMILES string. Bounds are passed on as bounds.

Experiment [1] addresses Quadruplex DNA. Nature of the experiment: Binding affinity to c-MYC G4- quadruplex DNA Pu22 (unknown origin) assessed as binding constant by SPR analysis. The format is nucleic-acid assay.
Experiment [2] has as its target Quadruplex DNA. Nature of the experiment: Binding affinity to c-MYC G4 quadruplex DNA Pu22 (unknown origin) assessed as binding constant by SPR analysis. The class given is nucleic-acid assay. (In SPR one partner is held on a chip, and binding of the other changes the refractive index at the surface.)
The nature of experiment [3]: Binding affinity to Hairpin DNA (unknown origin) assessed as binding constant by SPR analysis.
Experiment [4] deals with RNA. Nature of the experiment: Binding affinity to NRAS RNA mutant (unknown origin) assessed as binding constant by SPR analysis.
The nature of experiment [5]: Binding affinity to G-rich HRAS DNA (unknown origin) assessed as binding constant by SPR analysis.
A short description of experiment [6]: Binding affinity to G-rich NRAS RNA (unknown origin) assessed as binding constant by SPR analysis.
Experiment [7] is described as follows: Binding affinity to human G-rich Htg22 DNA assessed as binding constant by SPR analysis.
Experiment [8] concerns Quadruplex DNA. Nature of the experiment: Stabilization of c-MYC G4 quadruplex DNA Pu22 (unknown origin) assessed as change in melting temperature at 2 uM by CD spectroscopy. The format is nucleic-acid assay.
A short description of experiment [9]: Binding affinity to G-rich KRAS DNA (unknown origin) assessed as binding constant by SPR analysis.

In the case of `CCn1c2ccccc2c2cc(-c3nc(-c4ccc(N5CCN(C)CC5)cc4)c(-c4ccc(N5CCN(Cc6cn(CCOCCO)nn6)CC5)cc4)[nH]3)ccc21`, the Kd was 1.2 µM in experiment [1]; greater than 20 µM in [2]; greater than 20 µM in experiment [3]; greater than 20 µM in experiment [4]; 2.8 µM in experiment [5]; 14.5 µM in experiment [6]. In addition, the Kd was greater than 20 µM in experiment [7] and 5.6 µM in experiment [9]. For the same compound, the ΔTm in experiment [8] stood at 18.7 °C.

`CCn1c2ccccc2c2cc(-c3nc(-c4ccc(N5CCN(C)CC5)cc4)c(-c4ccc(N5CCN(C)CC5)cc4)n3-c3ccc(O[C@@H]4O[C@H](CO)[C@@H](O)[C@H](O)[C@H]4O)cc3)ccc21`: the Kd in experiment [1] was 1.8 µM; in experiment [2] it was greater than 20 µM; in experiment [3], greater than 20 µM; in [4] it was greater than 20 µM; in experiment [5], 6.8 µM; in experiment [6], 16.9 µM. Besides, the Kd was greater than 20 µM in experiment [7] and 12.5 µM in [9]. Also, the ΔTm in [8] is 15.5 °C.

On to `CCn1c2ccccc2c2cc(-c3nc(-c4ccc(N5CCN(C)CC5)cc4)c(-c4ccc(N5CCN(C)CC5)cc4)n3-c3ccc(OCCOCCOC(C)=O)cc3)ccc21`, for which the Kd in experiment [1] is 4 µM; in experiment [2], greater than 20 µM; in [3], greater than 20 µM; in experiment [4] it was greater than 20 µM; in experiment [5] it was 19.1 µM; in experiment [6], greater than 20 µM. Besides, the figures for the Kd in experiment [7] and in experiment [9] were greater than 20 µM and 10.2 µM, respectively. In addition, the ΔTm in [8] was found to be 21.2 °C.

Take `CCn1c2ccccc2c2cc(-c3nc(-c4ccc(N5CCN(C)CC5)cc4)c(-c4ccc(N5CCN(C)CC5)cc4)n3-c3ccc(O)cc3)ccc21`: the ΔTm in experiment [8] came out at 14.5 °C.

Consider `CCn1c2ccccc2c2cc(-c3nc(-c4ccc(N5CCN(C)CC5)cc4)c(-c4ccc(N5CCN(C)CC5)cc4)n3-c3ccc(OCCCO)cc3)ccc21`, for which the ΔTm in experiment [8] was 9.2 °C.

For the compound `CCn1c2ccccc2c2cc(-c3nc(-c4ccc(N5CCN(C)CC5)cc4)c(-c4ccc(N5CCN(C)CC5)cc4)n3-c3ccc(OCCCOC(C)=O)cc3)ccc21`, in experiment [8], the ΔTm was found to be 6.8 °C.

Turning to `CCn1c2ccccc2c2cc(-c3nc(-c4ccc(N5CCN(C)CC5)cc4)c(-c4ccc(N5CCN(C)CC5)cc4)n3-c3ccc(OCc4ccccc4)cc3)ccc21`, the ΔTm in [8] amounted to 7.6 °C.

`CCn1c2ccccc2c2cc(-c3nc(-c4ccc(N5CCN(C)CC5)cc4)c(-c4ccc(N5CCN(C)CC5)cc4)n3CCOC(C)=O)ccc21`: the ΔTm in experiment [8] was determined as 11.1 °C.

With `CCn1c2ccccc2c2cc(-c3nc(-c4ccc(N5CCN(C)CC5)cc4)c(-c4ccc(N5CCN(C)CC5)cc4)n3CCOCCO)ccc21`, the ΔTm in [8] is 11.6 °C.

In the case of `CCn1c2ccccc2c2cc(-c3nc(-c4ccc(N5CCN(C)CC5)cc4)c(-c4ccc(N5CCN(C)CC5)cc4)n3CCOCCOC(C)=O)ccc21`, the ΔTm in [8] is 10.4 °C.

Consider `COc1ccc(-n2c(-c3ccc4c(c3)c3ccccc3n4Cc3cn(CCOCCO)nn3)nc(-c3ccc(N4CCN(C)CC4)cc3)c2-c2ccc(N3CCN(C)CC3)cc2)cc1`, for which the ΔTm in experiment [8] stood at 13.4 °C.

Regarding `COc1ccc(-n2c(-c3ccc4c(c3)c3ccccc3n4Cc3cn([C@@H]4O[C@H](COC(C)=O)[C@@H](OC(C)=O)[C@H](OC(C)=O)[C@H]4OC(C)=O)nn3)nc(-c3ccc(N4CCN(C)CC4)cc3)c2-c2ccc(N3CCN(C)CC3)cc2)cc1`, the ΔTm in [8] was 13.4 °C.

Regarding `CCn1c2ccccc2c2cc(-c3nc(-c4ccc(N5CCN(C)CC5)cc4)c(-c4ccc(N5CCN(C)CC5)cc4)n3-c3ccc(OCCOCCO[C@@H]4O[C@H](CO)[C@@H](O)[C@H](O)[C@H]4N)cc3)ccc21` (single isomer, unassigned), the Kd was 0.8 µM in experiment [1]; greater than 20 µM in experiment [2]; greater than 20 µM in experiment [3]; greater than 20 µM in experiment [4]; 2.3 µM in experiment [5]; 5.8 µM in experiment [6]. The Kd in experiment [7] was greater than 20 µM; in experiment [9] it was 2.3 µM. Besides, the ΔTm in experiment [8] was 21.7 °C.

`CCn1c2ccccc2c2cc(-c3nc(-c4ccc(N5CCN(C)CC5)cc4)c(-c4ccc(N5CCN(C)CC5)cc4)n3-c3ccc(OCCCOC4(C)O[C@H]5O[C@H](CO)[C@@H](O)[C@H](O)[C@H]5O4)cc3)ccc21` (single isomer, unassigned): the ΔTm in [8] is 14.6 °C.

Turning to `CCn1c2ccccc2c2cc(-c3nc(-c4ccc(N5CCN(C)CC5)cc4)c(-c4ccc(N5CCN(C)CC5)cc4)n3-c3ccc(OCCCO[C@@H]4O[C@H](COC(C)=O)[C@@H](OC(C)=O)[C@H](OC(C)=O)[C@H]4OC(C)=O)cc3)ccc21` (single isomer, unassigned), the ΔTm in experiment [8] was 13.7 °C.

In the case of `CCn1c2ccccc2c2cc(-c3nc(-c4ccc(N5CCN(C)CC5)cc4)c(-c4ccc(N5CCN(C)CC5)cc4)n3-c3ccc(OCCCO[C@@H]4O[C@H](COC(C)=O)[C@H](OC(C)=O)[C@H](OC(C)=O)[C@H]4OC(C)=O)cc3)ccc21` (single isomer, unassigned), in [8], the ΔTm is 10.9 °C.

With `CCn1c2ccccc2c2cc(-c3nc(-c4ccc(N5CCN(C)CC5)cc4)c(-c4ccc(N5CCN(C)CC5)cc4)n3-c3ccc(OCCOCCO[C@@H]4O[C@H](COC(C)=O)[C@@H](OC(C)=O)[C@H](OC(C)=O)[C@H]4NC(=O)C(F)(F)F)cc3)ccc21` (single isomer, unassigned), in experiment [8], the ΔTm was 14 °C.

Consider `CCn1c2ccccc2c2cc(-c3nc(-c4ccc(N5CCN(C)CC5)cc4)c(-c4ccc(N5CCN(C)CC5)cc4)n3-c3ccc(OCCOCCO[C@@H]4O[C@H](COC(C)=O)[C@@H](OC(C)=O)[C@H](OC(C)=O)[C@H]4OC(C)=O)cc3)ccc21` (single isomer, unassigned), for which the ΔTm in experiment [8] came to 14.2 °C.

Take `CCn1c2ccccc2c2cc(-c3nc(-c4ccc(N5CCN(C)CC5)cc4)c(-c4ccc(N5CCN(C)CC5)cc4)n3-c3ccc(OCCOCCO[C@@H]4O[C@H](COC(C)=O)[C@H](OC(C)=O)[C@H](OC(C)=O)[C@H]4OC(C)=O)cc3)ccc21` (single isomer, unassigned): the ΔTm in experiment [8] came to 12.8 °C.

On to `CCn1c2ccccc2c2cc(-c3nc(-c4ccc(N5CCN(C)CC5)cc4)c(-c4ccc(N5CCN(C)CC5)cc4)n3-c3ccc(O[C@@H]4O[C@H](COC(C)=O)[C@@H](OC(C)=O)[C@H](OC(C)=O)[C@H]4OC(C)=O)cc3)ccc21` (single isomer, unassigned), for which the ΔTm in experiment [8] was found to be 10.7 °C.

As for `CCn1c2ccccc2c2cc(-c3nc(-c4ccc(N5CCN(C)CC5)cc4)c(-c4ccc(N5CCN(C)CC5)cc4)n3CCOCCO[C@@H]3O[C@H](COC(C)=O)[C@@H](OC(C)=O)[C@H](OC(C)=O)[C@H]3OC(C)=O)ccc21` (single isomer, unassigned), the ΔTm in experiment [8] is 11.4 °C.

`CCn1c2ccccc2c2cc(-c3nc(-c4ccc(N5CCN(C)CC5)cc4)c(-c4ccc(N5CCN(C)CC5)cc4)n3CCOCCO[C@@H]3O[C@H](COC(C)=O)[C@H](OC(C)=O)[C@H](OC(C)=O)[C@H]3OC(C)=O)ccc21` (single isomer, unassigned): the ΔTm in [8] was found to be 10.3 °C.

`CCn1c2ccccc2c2cc(-c3nc(-c4ccc(N5CCN(C)CC5)cc4)c(-c4ccc(N5CCN(C)CC5)cc4)n3CCOCCO[C@H]3OC(CO)C(O)[C@@H](O)[C@@H]3O)ccc21` (single isomer, unassigned): in experiment [8], the ΔTm came to 14.9 °C.

For the compound `CCn1c2ccccc2c2cc(-c3nc(-c4ccc(N5CCN(C)CC5)cc4)c(-c4ccc(N5CCN(C)CC5)cc4)n3CCO[C@@H]3O[C@H](CO)[C@@H](O)[C@H](O)[C@H]3O)ccc21` (single isomer, unassigned), the ΔTm in experiment [8] is 14.7 °C.

On to `CCn1c2ccccc2c2cc(-c3nc(-c4ccc(N5CCN(C)CC5)cc4)c(-c4ccc(N5CCN(C)CC5)cc4)n3CCO[C@@H]3O[C@H](CO)[C@H](O)[C@H](O)[C@H]3O)ccc21` (single isomer, unassigned), for which, in experiment [8], the ΔTm came to 11.3 °C.

Consider `CCn1c2ccccc2c2cc(-c3nc(-c4ccc(N5CCN(C)CC5)cc4)c(-c4ccc(N5CCN(C)CC5)cc4)n3CCO[C@@H]3O[C@H](COC(C)=O)[C@@H](OC(C)=O)[C@H](OC(C)=O)[C@H]3OC(C)=O)ccc21` (single isomer, unassigned), for which the ΔTm in [8] turned out to be 7.1 °C.

Regarding `CCn1c2ccccc2c2cc(-c3nc(-c4ccc(N5CCN(C)CC5)cc4)c(-c4ccc(N5CCN(C)CC5)cc4)n3CCO[C@@H]3O[C@H](COC(C)=O)[C@H](OC(C)=O)[C@H](OC(C)=O)[C@H]3OC(C)=O)ccc21` (single isomer, unassigned), in experiment [8], the ΔTm is 9.3 °C.

On to `CCn1c2ccccc2c2cc(-c3nc(-c4ccc(N5CCN(C)CC5)cc4)c(-c4ccc(N5CCN(Cc6cn([C@@H]7O[C@H](COC(C)=O)[C@@H](OC(C)=O)[C@H](OC(C)=O)[C@H]7OC(C)=O)nn6)CC5)cc4)[nH]3)ccc21` (single isomer, unassigned), for which the ΔTm in [8] was 15.4 °C.

With `CCn1c2ccccc2c2cc(-c3nc(-c4ccc(N5CCN(C)CC5)cc4)c(-c4ccc(N5CCN(Cc6cn([C@@H]7O[C@H](COC(C)=O)[C@H](OC(C)=O)[C@H](OC(C)=O)[C@H]7OC(C)=O)nn6)CC5)cc4)[nH]3)ccc21` (single isomer, unassigned), the ΔTm in experiment [8] came out at 15.1 °C.

For `COc1ccc(-n2c(-c3ccc4c(c3)c3ccccc3n4Cc3cn([C@@H]4O[C@H](CO)[C@@H](O)[C@H](O)[C@H]4O)nn3)nc(-c3ccc(N4CCN(C)CC4)cc3)c2-c2ccc(N3CCN(C)CC3)cc2)cc1` (single isomer, unassigned), the ΔTm in [8] came to 10.3 °C.

Turning to `COc1ccc(-n2c(-c3ccc4c(c3)c3ccccc3n4Cc3cn([C@@H]4O[C@H](CO)[C@H](O)[C@H](O)[C@H]4O)nn3)nc(-c3ccc(N4CCN(C)CC4)cc3)c2-c2ccc(N3CCN(C)CC3)cc2)cc1` (single isomer, unassigned), in experiment [8], the ΔTm is 12.4 °C.

For the compound `COc1ccc(-n2c(-c3ccc4c(c3)c3ccccc3n4Cc3cn([C@@H]4O[C@H](COC(C)=O)[C@H](OC(C)=O)[C@H](OC(C)=O)[C@H]4OC(C)=O)nn3)nc(-c3ccc(N4CCN(C)CC4)cc3)c2-c2ccc(N3CCN(C)CC3)cc2)cc1` (single isomer, unassigned), in experiment [8], the ΔTm is 13.3 °C.

The values above are taken from ChEMBL document CHEMBL5104180, “Design, Synthesis, and Evaluation of New Sugar-Substituted Imidazole Derivatives as Selective c-MYC Transcription Repressors Targeting the Promoter G-Quadruplex” (J Med Chem, 2022).
